# Data published in article PMC11377395 (Purinergic Signalling, 2024).
# Target: T1, A3 adenosine receptor (hA3AR) (Homo sapiens, UniProt P0DMS8)
# T1 construct: gene ADORA3
# T1 sequence (P0DMS8 1-318): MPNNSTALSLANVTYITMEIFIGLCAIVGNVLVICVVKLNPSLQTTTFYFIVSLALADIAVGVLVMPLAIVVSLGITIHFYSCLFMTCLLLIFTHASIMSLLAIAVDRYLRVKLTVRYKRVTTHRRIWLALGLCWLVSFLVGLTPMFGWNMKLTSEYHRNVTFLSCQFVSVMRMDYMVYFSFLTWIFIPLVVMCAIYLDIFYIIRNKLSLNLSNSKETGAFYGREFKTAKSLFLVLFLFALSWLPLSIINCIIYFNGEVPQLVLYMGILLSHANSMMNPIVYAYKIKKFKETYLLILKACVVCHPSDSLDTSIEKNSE
# Assay: positive allosteric modulation of MRS5698 at […] in cAMP assay, CHO-hA3AR (also HL-60 cells)
# Format: cell-based
structure (smiles),measurement,value
"Clc1ccc(Nc2nc3ccccc3c3[nH]c(C4CCCCC4)nc23)cc1Cl [LUF6000, N-(3,4-Dichloro-phenyl)-2-cyclohexyl-1 H-imidazo[4,5-c]quinolin-4-amine]",% Emax enhancement,19 % Emax enhancement
